ChEMBL document CHEMBL2016461, “A new pancreatic lipase inhibitor from Broussonetia kanzinoki” (Bioorg Med Chem Lett, 2012)
Active and inactive are the calls of the source. No cut-off for these calls is given here.

What was measured:
[1] = molecular target: T1, Pancreatic triacylglycerol lipase (Sus scrofa) (UniProt P00591); experiment: Inhibition of porcine pancreatic lipase using p-nitrophenylbutyrate as substrate at 100 uM preincubated for 15 mins prior substrate addition measured after 15 mins by spectrophotometry
T1 sequence (whole entry): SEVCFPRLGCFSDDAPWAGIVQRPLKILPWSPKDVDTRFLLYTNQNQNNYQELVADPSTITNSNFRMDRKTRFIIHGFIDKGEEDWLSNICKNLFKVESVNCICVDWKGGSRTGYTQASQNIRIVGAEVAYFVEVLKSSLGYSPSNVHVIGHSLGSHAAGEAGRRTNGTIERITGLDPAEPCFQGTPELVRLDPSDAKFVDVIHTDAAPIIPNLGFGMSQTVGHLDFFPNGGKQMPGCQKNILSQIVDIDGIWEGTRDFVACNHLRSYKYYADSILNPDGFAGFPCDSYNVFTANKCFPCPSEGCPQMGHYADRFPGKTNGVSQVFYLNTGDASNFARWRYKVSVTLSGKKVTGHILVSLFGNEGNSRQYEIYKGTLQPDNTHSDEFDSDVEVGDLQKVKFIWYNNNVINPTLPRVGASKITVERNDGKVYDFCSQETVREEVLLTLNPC

[2] = molecular target: T2, Pancreatic triacylglycerol lipase (Sus scrofa, UniProt P00591); experiment: Inhibition of porcine pancreatic lipase using p-nitrophenylbutyrate as substrate preincubated for 15 mins prior substrate addition measured after 15 mins by spectrophotometry
T2 sequence (P00591 whole entry): T1 sequence (whole entry)

[3] = molecular target: T1, Pancreatic triacylglycerol lipase (Sus scrofa); settings: 1 uM
Description: Inhibition of porcine pancreatic lipase using p-nitrophenylbutyrate as substrate at 1 uM preincubated for 15 mins prior substrate addition measured after 15 mins by spectrophotometry

[4] = tested on: 3T3-L1; experiment: Antiadipogenic activity in mouse 3T3L1 cells assessed as cell differentiation measuring inhibition of fat accumulation at 100 uM after 8 days by oil red O-staining based spectrophotometry relative to control; format: functional; settings: 3T3-L1, 192 h
[5] = tested on: 3T3-L1; experiment: Antiadipogenic activity in mouse 3T3L1 cells assessed as cell differentiation measuring fat accumulation at 100 uM after 8 days by oil red O-staining based spectrophotometry relative to control; format: functional
[6] = molecular target: T1, Pancreatic triacylglycerol lipase (Sus scrofa); experiment: Non-competitive inhibition of porcine pancreatic lipase using p-nitrophenylbutyrate as substrate preincubated for 15 mins prior substrate addition measured after 15 mins by Lineweaver-Burk plot analysis

| SMILES | inhibition [1] [%] | IC50 [2] [µM] | inhibition [3] [%] | inhibition [6] | inhibition at 100 µM [4] [%] | Activity [5] [%] |
| --- | --- | --- | --- | --- | --- | --- |
| COc1ccc(C2CCc3ccc(O)cc3O2)cc1O (stereo not drawn) | 24.8 | > 100 |  |  |  |  |
| COc1ccc(-c2oc3cc(O)ccc3c(=O)c2O)cc1 | 21.8 | > 100 |  |  |  |  |
| COc1ccc(-c2oc3cc(O)ccc3c(=O)c2O)cc1O | 38.2 | > 100 |  |  |  |  |
| CCCCCCCCCCC[C@@H](C[C@@H]1OC(=O)[C@H]1CCCCCC)OC(=O)[C@H](CC(C)C)NC=O |  |  | 60.4 |  |  |  |

Now from value to compound, other results behind:

| inhibition [1] [%] | IC50 [2] [µM] | inhibition [3] [%] | inhibition [6] | SMILES | inhibition at 100 µM [4] [%] | Activity [5] [%] |
| --- | --- | --- | --- | --- | --- | --- |
| 55.6 | 85.1 |  |  | Oc1ccc(C2CCc3ccc(O)cc3O2)cc1 (stereo not drawn) |  |  |
| 50.7 | 98.7 |  |  | COc1ccc(CCCc2ccc(O)cc2)c(O)c1 [BROUSSONIN A] |  |  |
| 40.4 | 75.4 |  |  | COc1cc(O)ccc1CCCc1ccc(O)cc1 [BROUSSONIN B] | 48 |  |
| 71.9 | 28.4 |  | Active | COC1=CC(=O)C=CC1(O)CCCc1ccc(O)cc1 (stereo not drawn) [BROUSSONONE A] |  | 66 |
